Assay results published in patent publication US20240246967A1, “AXL COMPOUNDS” (ARCUS BIOSCIENCES, INC., priority 2021, published 2024).

What was measured:
Axl [1] = target: T1, Axl (Homo sapiens, UniProt P30530); assay: HTRF KinEASE-TK biochemical potency assay, AXL; parameters: purchased Invitrogen; settings: 5 nM AXL, 700 μM ATP, 800 nM TK Substrate-biotin
T1 sequence (P30530 26-894): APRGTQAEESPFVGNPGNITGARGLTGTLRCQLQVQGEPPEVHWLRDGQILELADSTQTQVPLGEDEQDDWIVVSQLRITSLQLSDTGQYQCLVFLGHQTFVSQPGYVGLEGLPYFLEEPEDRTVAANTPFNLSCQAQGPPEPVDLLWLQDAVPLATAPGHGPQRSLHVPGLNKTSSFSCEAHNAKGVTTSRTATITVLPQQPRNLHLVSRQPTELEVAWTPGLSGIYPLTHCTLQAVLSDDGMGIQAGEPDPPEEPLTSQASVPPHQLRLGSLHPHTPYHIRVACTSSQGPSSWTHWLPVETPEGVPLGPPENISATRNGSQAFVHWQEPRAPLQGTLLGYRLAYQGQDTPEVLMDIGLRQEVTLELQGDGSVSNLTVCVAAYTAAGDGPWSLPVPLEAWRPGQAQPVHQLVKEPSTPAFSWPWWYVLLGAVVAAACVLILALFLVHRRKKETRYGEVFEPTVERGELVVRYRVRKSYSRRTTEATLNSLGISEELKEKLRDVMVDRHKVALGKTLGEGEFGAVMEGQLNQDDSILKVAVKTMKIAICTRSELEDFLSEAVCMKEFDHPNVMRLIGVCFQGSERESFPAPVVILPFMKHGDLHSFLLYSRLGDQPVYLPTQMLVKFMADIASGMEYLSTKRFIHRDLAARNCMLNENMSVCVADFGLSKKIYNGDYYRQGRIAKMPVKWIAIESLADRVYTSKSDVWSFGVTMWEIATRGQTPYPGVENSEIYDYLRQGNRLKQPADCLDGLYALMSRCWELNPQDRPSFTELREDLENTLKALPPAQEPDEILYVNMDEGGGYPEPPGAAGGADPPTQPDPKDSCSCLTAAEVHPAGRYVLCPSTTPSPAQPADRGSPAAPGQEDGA
Outline: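 Final conditions: 5 nM AXL, 1 nM TYRO3 or MER, 50 mM HEPES pH 7.4, 10 mM MgCl2, 0.01% BSA, 1 mM DTT, 700 μM ATP. Reaction ran 2 h at RT after 1 h preincubation with compound; HTRF signal read at 665/620 nm.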

Axl [2] = target: T1, Axl; assay: Axl NanoBRET intracellular kinase assay (intracellular binding, Cell Binding); parameters: host or cells: HEK-293; settings: HEK-293 cells transfected with Axl-NanoLuc fusion vector; 0.35 μM K-5 NanoBRET tracer
Outline: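 In intact HEK-293 cells transiently expressing NanoLuc-tagged Axl, compounds compete with the K-5 tracer (0.35 μM, 2 h, 37 °C) after a 1 h preincubation. Readout is the 610/450 nm emission ratio.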

Compound | IC50 (Axl [1]) [nM] | IC50 (Axl [2]) [nM]
COC1CCN(C(=O)c2ccc(-c3n[nH]c4ncc(-c5ccc6c(c5)CCC(C)(N5CCC[C@H]5C)CC6)cc34)cc2)CC1 (stereo partly drawn) [Example 89, (4-Methoxypiperidin-1-yl)(4-(5-(7-methyl-7-((R)-2-methylpyrrolidin-1-yl)-6,7,8,9-tetrahydro-5H-benzo[7]annulen-2-yl)-1H-pyrazolo[3,4-b]pyridin-3-yl)phenyl)methanone] | < 100 | < 100
CC1(N2CCOCC2)CCc2ccc(-c3cnc4[nH]nc(-c5ccc(S(=O)(=O)C6CC6)cc5)c4c3)cc2CC1 (stereo not drawn) [Example 2, 4-(2-{3-[4-(Cyclopropanesulfonyl)phenyl]-1H-pyrazolo[3,4-b]pyridin-5-yl}-7-methyl-6,7,8,9-tetrahydro-5H-benzo[7]annulen-7-yl)morpholine] | > 1000 | > 1000
NC(=O)c1ccc(-c2n[nH]c3ncc(-c4ccc5c(c4)CCC(N4CCCC4)CC5)cc23)cc1 (stereo not drawn) [Example 78, 4-(5-(7-(Pyrrolidin-1-yl)-6,7,8,9-tetrahydro-5H-benzo[7]annulen-2-yl)-1H-pyrazolo[3,4-b]pyridin-3-yl)benzamide] | < 100 | < 100
C[C@@H]1CCCN1C1(C)CCc2ccc(-c3cnc4[nH]nc(-c5ccc(C(=O)NC6CCOCC6)cc5)c4c3)cc2CC1 (stereo partly drawn) [Example 88, 4-(5-(7-Methyl-7-((R)-2-methylpyrrolidin-1-yl)-6,7,8,9-tetrahydro-5H-benzo[7]annulen-2-yl)-1H-pyrazolo[3,4-b]pyridin-3-yl)-N-(tetrahydro-2H-pyran-4-yl)benzamide] | < 100 | < 100
C[C@@H]1CCCN1C1(C)CCc2ccc(-c3cnc4[nH]nc(-c5ccc(S(=O)(=O)C6CC6)cc5)c4c3)cc2CC1 (stereo partly drawn) [Example 1, 3-(4-(Cyclopropylsulfonyl)phenyl)-5-(7-methyl-7-((R)-2-methylpyrrolidin-1-yl)-6,7,8,9-tetrahydro-5H-benzo[7]annulen-2-yl)-1H-pyrazolo[3,4-b]pyridine] | < 100 | < 100
O=C(c1ccc(-c2n[nH]c3ncc(-c4ccc5c(c4)CC[C@@H](N4CCCC4)CC5)cc23)cc1Cl)N1CCC(O)CC1 [Example 85, (S)-(2-Chloro-4-(5-(7-(pyrrolidin-1-yl)-6,7,8,9-tetrahydro-5H-benzo[7]annulen-2-yl)-1H-pyrazolo[3,4-b]pyridin-3-yl)phenyl)(4-hydroxypiperidin-1-yl)methanone] | < 100 | < 100
O=C(c1ccc(-c2n[nH]c3ncc(-c4ccc5c(c4)CC[C@@H](N4CCCC4)CC5)cc23)cc1Cl)N1CCNCC1 [Example 82, (S)-(2-Chloro-4-(5-(7-(pyrrolidin-1-yl)-6,7,8,9-tetrahydro-5H-benzo[7]annulen-2-yl)-1H-pyrazolo[3,4-b]pyridin-3-yl)phenyl)(piperazin-1-yl)methanone] | < 100 | < 100
NC(=O)c1ccc(-c2n[nH]c3ncc(-c4ccc5c(c4)CCC(N4CCCC4)CC5)cc23)cc1C(F)(F)F (stereo not drawn) [Example 80, 4-(5-(7-(Pyrrolidin-1-yl)-6,7,8,9-tetrahydro-5H-benzo[7]annulen-2-yl)-1H-pyrazolo[3,4-b]pyridin-3-yl)-2-(trifluoromethyl)benzamide] | < 100 | < 100
NC(=O)c1ccc(-c2n[nH]c3ncc(-c4ccc5c(c4)CC[C@@H](N4CCCC4)CC5)cc23)cc1Cl [Example 84, (S)-2-Chloro-4-(5-(7-(pyrrolidin-1-yl)-6,7,8,9-tetrahydro-5H-benzo[7]annulen-2-yl)-1H-pyrazolo[3,4-b]pyridin-3-yl)benzamide] | < 100 | < 100
CCC1(N2CCC[C@@H]2CO)CCc2ccc(-c3cnc4[nH]nc(-c5ccc(C(N)=O)c(Cl)c5)c4c3)cc2CC1 (stereo partly drawn) [Example 74, 2-Chloro-4-(5-{7-ethyl-7-[(2R)-2-(hydroxymethyl)pyrrolidin-1-yl]-6,7,8,9-tetrahydro-5H-benzo[7]annulen-2-yl}-1H-pyrazolo[3,4-b]pyridin-3-yl)benzamide] | < 100 | < 100
CC(C)NC(=O)c1ccc(-c2n[nH]c3ncc(-c4ccc5c(c4)CCC(C)(N4CCC[C@H]4C)CC5)cc23)cc1 (stereo partly drawn) [Example 70, 4-(5-{7-Methyl-7-[(2R)-2-methylpyrrolidin-1-yl]-6,7,8,9-tetrahydro-5H-benzo[7]annulen-2-yl}-1H-pyrazolo[3,4-b]pyridin-3-yl)-N-(propan-2-yl)benzamide] | < 100 | < 100
C[C@@H]1CCCN1C1(C)CCc2ccc(-c3cnc4[nH]nc(-c5ccc(C(=O)N6CCC6)cc5)c4c3)cc2CC1 (stereo partly drawn) [Example 76, (2R)-1-(2-{3-[4-(Azetidine-1-carbonyl)phenyl]-1H-pyrazolo[3,4-b]pyridin-5-yl}-7-methyl-6,7,8,9-tetrahydro-5H-benzo[7]annulen-7-yl)-2-methylpyrrolidine] | < 100 | < 100
